In ChEMBL document CHEMBL3885881, “DrugMatrix”:

Organism: Rattus norvegicus
Assay: DrugMatrix - Regimen: Daily Repeat
Format: toxicity, organism-based, Sprague-Dawley
Design: regimen Daily Repeat, gender Male, age 6-8 weeks
Conditions: in vivo, po, route oral GAVAGE, vehicle .5 % CMC; for BASOPHIL / EOSINOPHIL / ERYTHROCYTE COUNT / HEMATOCRIT / HEMOGLOBIN / LEUKOCYTE COUNT / LYMPHOCYTE / MEAN CORPUSCULAR HEMOGLOBIN / MEAN CORPUSCULAR HEMOGLOBIN CONCENTRATION / MEAN CORPUSCULAR VOLUME / MONOCYTE / NEUTROPHIL / PLATELET COUNT: tissue Blood; for ALANINE AMINOTRANSFERASE / ALBUMIN / ALKALINE PHOSPHATASE / ASPARTATE AMINOTRANSFERASE / BLOOD UREA NITROGEN / CHLORIDE / CHOLESTEROL / CREATINE PHOSPHOKINASE / CREATININE / GLUCOSE / PHOSPHORUS / POTASSIUM / SODIUM / TOTAL BILIRUBIN / TOTAL PROTEIN: tissue Plasma
[1] = 0 mg/kg, 72 h, dose level Control, time 3 day
[2] = 0 mg/kg, 120 h, dose level Control, time 5 day
[3] = 38 mg/kg, 72 h, dose level Low, time 3 day

CCCNC(=O)NS(=O)(=O)c1ccc(Cl)cc1 [CHLORPROPAMIDE]
BASOPHIL [1]: 0% | EOSINOPHIL [1]: 0.33% | ERYTHROCYTE COUNT [1]: 6.2 x10E6/uL | HEMATOCRIT [1]: 38.08% | HEMOGLOBIN [1]: 14.92 G/DL | LEUKOCYTE COUNT [1]: 11.13 x10E3/uL | LYMPHOCYTE [1]: 76% | MEAN CORPUSCULAR HEMOGLOBIN [1]: 24.1 pg | MEAN CORPUSCULAR HEMOGLOBIN CONCENTRATION [1]: 39.17 G/DL | MEAN CORPUSCULAR VOLUME [1]: 61.48 fL | MONOCYTE [1]: 3.83% | NEUTROPHIL [1]: 19.83% | PLATELET COUNT [1]: 1327.5 x10E3/uL | ALANINE AMINOTRANSFERASE [1]: 40.17 u/L | ALBUMIN [1]: 4.07 G/DL | ALKALINE PHOSPHATASE [1]: 372 u/L | ASPARTATE AMINOTRANSFERASE [1]: 67.17 u/L | BLOOD UREA NITROGEN [1]: 18.83 mg/dL | CHLORIDE [1]: 105.17 MEQ/L | CHOLESTEROL [1]: 78.17 mg/dL | CREATINE PHOSPHOKINASE [1]: 149.17 u/L | CREATININE [1]: 0.57 mg/dL | GLUCOSE [1]: 185.17 mg/dL | PHOSPHORUS [1]: 11.43 mg/dL | POTASSIUM [1]: 6.78 MEQ/L | SODIUM [1]: 152.83 MEQ/L | TOTAL BILIRUBIN [1]: 0.4 mg/dL | TOTAL PROTEIN [1]: 6.87 G/DL | BASOPHIL [2]: 0% | EOSINOPHIL [2]: 0% | ERYTHROCYTE COUNT [2]: 6.05 x10E6/uL | HEMATOCRIT [2]: 36.55% | HEMOGLOBIN [2]: 14.7 G/DL | LEUKOCYTE COUNT [2]: 11.8 x10E3/uL | LYMPHOCYTE [2]: 86.83% | MEAN CORPUSCULAR HEMOGLOBIN [2]: 24.37 pg | MEAN CORPUSCULAR HEMOGLOBIN CONCENTRATION [2]: 40.32 G/DL | MEAN CORPUSCULAR VOLUME [2]: 60.47 fL | MONOCYTE [2]: 0.83% | NEUTROPHIL [2]: 12.33% | PLATELET COUNT [2]: 1177 x10E3/uL | ALANINE AMINOTRANSFERASE [2]: 41.83 u/L | ALBUMIN [2]: 3.75 G/DL | ALKALINE PHOSPHATASE [2]: 377.5 u/L | ASPARTATE AMINOTRANSFERASE [2]: 60.83 u/L | BLOOD UREA NITROGEN [2]: 16 mg/dL | CHLORIDE [2]: 105.67 MEQ/L | CHOLESTEROL [2]: 67.83 mg/dL | CREATINE PHOSPHOKINASE [2]: 120.33 u/L | CREATININE [2]: 0.6 mg/dL | GLUCOSE [2]: 167.67 mg/dL | PHOSPHORUS [2]: 10.03 mg/dL | POTASSIUM [2]: 6.68 MEQ/L | SODIUM [2]: 150.5 MEQ/L | TOTAL BILIRUBIN [2]: 0.57 mg/dL | TOTAL PROTEIN [2]: 6.25 G/DL | BASOPHIL [3]: 0% | EOSINOPHIL [3]: 0% | ERYTHROCYTE COUNT [3]: 5.72 x10E6/uL | HEMATOCRIT [3]: 35.8% | HEMOGLOBIN [3]: 13.93 G/DL | LEUKOCYTE COUNT [3]: 12.2 x10E3/uL | LYMPHOCYTE [3]: 81% | MEAN CORPUSCULAR HEMOGLOBIN [3]: 24.4 pg | MEAN CORPUSCULAR HEMOGLOBIN CONCENTRATION [3]: 38.9 G/DL | MEAN CORPUSCULAR VOLUME [3]: 62.73 fL | MONOCYTE [3]: 1.67% | NEUTROPHIL [3]: 17.33% | PLATELET COUNT [3]: 1327 x10E3/uL | ALANINE AMINOTRANSFERASE [3]: 39.33 u/L | ALBUMIN [3]: 3.73 G/DL | ALKALINE PHOSPHATASE [3]: 318.67 u/L | ASPARTATE AMINOTRANSFERASE [3]: 61.33 u/L | BLOOD UREA NITROGEN [3]: 14.33 mg/dL | CHLORIDE [3]: 105.67 MEQ/L | CHOLESTEROL [3]: 77.33 mg/dL | CREATINE PHOSPHOKINASE [3]: 126.33 u/L | CREATININE [3]: 0.57 mg/dL | GLUCOSE [3]: 180.33 mg/dL | PHOSPHORUS [3]: 11.27 mg/dL | POTASSIUM [3]: 6.7 MEQ/L | SODIUM [3]: 151.33 MEQ/L | TOTAL BILIRUBIN [3]: 0.33 mg/dL | TOTAL PROTEIN [3]: 6.07 G/DL
